Test results from patent US20240400555A1 (Initial Therapeutics, Inc., priority 2023, published 2024).
Like-named read-outs stand apart in the source and are kept apart here.

Tested on: MV-4-11 cells
Experiment: Cell Viability Assay in MV-4-11 Cells
Assay type: cell-based
Details: Homo sapiens, MV4-11, 72 h
Outline: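 Luminescent ATP read-out (CellTiter-Glo) after 72 h compound treatment of MV-4-11 leukaemia cells (7,000 per well, IMDM plus 10% FBS). Values expressed relative to DMSO control and derived by four-parameter non-linear regression.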

[1] = MV-4-11 cells, 72 h, Cell-Titer Glo, read-out: IC50

Structure (SMILES): Cn1cc(-c2ccc(C(=O)N(c3nccc4cc(-c5cccc(CO)c5)ccc34)[C@@H]3CCCNC3)c(F)c2)nn1 [Example 490, (R)-2-fluoro-N-(6-(3-(hydroxymethyl)phenyl)isoquinolin-1-yl)-4-(1-methyl-1H-1,2,3-triazol-4-yl)-N-(piperidin-3-yl)benzamide]
- IC50 [1]: 0.3 µM

Structure (SMILES): Cn1cc(-c2ccc(C(=O)N(c3nccc4cc(-c5ccnc(N)c5)ccc34)[C@@H]3CCCNC3)c(F)c2)nn1 [Example 491, (R)—N-(6-(2-aminopyridin-4-yl)isoquinolin-1-yl)-2-fluoro-4-(1-methyl-1H-1,2,3-triazol-4-yl)-N-(piperidin-3-yl)benzamide]
- IC50 [1]: 0.46 µM

Structure (SMILES): Cn1cc(-c2ccc(C(=O)N(c3nccc4cc(-c5cnn(CCO)c5)ccc34)[C@@H]3CCCNC3)c(F)c2)nn1 [Example 492, (R)-2-fluoro-N-(6-(1-(2-hydroxyethyl)-1H-pyrazol-4-yl)isoquinolin-1-yl)-4-(1-methyl-1H-1,2,3-triazol-4-yl)-N-(piperidin-3-yl)benzamide]
- IC50 [1]: 0.87 µM

Structure (SMILES): Cn1cc(-c2ccc(C(=O)N(c3nccc4cc(-c5ccccc5O)ccc34)[C@@H]3CCCNC3)c(F)c2)nn1 [Example 493, (R)-2-fluoro-N-(6-(2-hydroxyphenyl)isoquinolin-1-yl)-4-(1-methyl-1H-1,2,3-triazol-4-yl)-N-(piperidin-3-yl)benzamide]
- IC50 [1]: 0.53 µM

Structure (SMILES): Cn1cc(-c2ccc(C(=O)N(c3nccc4cc(/C=C/C(=O)O)ccc34)[C@@H]3CCCNC3)c(F)c2)nn1 [Example 494, (R,E)-3-(1-(2-fluoro-4-(1-methyl-1H-1,2,3-triazol-4-yl)-N-(piperidin-3-yl)benzamido)isoquinolin-6-yl)acrylic acid]
- IC50 [1]: > 10 µM

Structure (SMILES): Cn1cc(-c2ccc(C(=O)N(c3nccc4cc(-c5cccc(O)c5)ccc34)[C@@H]3CCCNC3)c(F)c2)nn1 [Example 495, (R)-2-fluoro-N-(6-(3-hydroxyphenyl)isoquinolin-1-yl)-4-(1-methyl-1H-1,2,3-triazol-4-yl)-N-(piperidin-3-yl)benzamide]
- IC50 [1]: 0.66 µM

Structure (SMILES): Cn1cc(-c2ccc(C(=O)N(c3nccc4cc(/C=C/C(N)=O)ccc34)[C@@H]3CCCNC3)c(F)c2)nn1 [Example 496, (R,E)-N-(6-(3-amino-3-oxoprop-1-en-1-yl)isoquinolin-1-yl)-2-fluoro-4-(1-methyl-1H-1,2,3-triazol-4-yl)-N-(piperidin-3-yl)benzamide]
- IC50 [1]: 5.4 µM

Structure (SMILES): Cc1cccc2ccnc(N(C(=O)N3CCCC(CCC(=O)Nc4ccncc4)C3)[C@@H]3CCCNC3)c12 (stereo partly drawn) [Example 497, N-(8-methylisoquinolin-1-yl)-3-(3-oxo-3-(pyridin-4-ylamino)propyl)-N—((R)-piperidin-3-yl)piperidine-1-carboxamide]
- IC50 [1]: 2 µM

Structure (SMILES): Cc1cccc2ccnc(N(C(=O)N3CCCC(CCC(=O)Nc4ccc5[nH]ncc5c4)C3)[C@@H]3CCCNC3)c12 (stereo partly drawn) [Example 498, 3-(3-((1H-indazol-5-yl)amino)-3-oxopropyl)-N-(8-methylisoquinolin-1-yl)-N—((R)-piperidin-3-yl)piperidine-1-carboxamide]
- IC50 [1]: 2 µM

Structure (SMILES): Cc1cccc2ccnc(N(C(=O)N3CCCC(CCC(=O)Nc4ccc5cn[nH]c5c4)C3)[C@@H]3CCCNC3)c12 (stereo partly drawn) [Example 499, 3-(3-((1H-indazol-6-yl)amino)-3-oxopropyl)-N-(8-methylisoquinolin-1-yl)-N—((R)-piperidin-3-yl)piperidine-1-carboxamide]
- IC50 [1]: 1.7 µM

Structure (SMILES): O=C(O)/C=C/c1cc2c(N(C(=O)c3ccc(-n4nnc5cccnc54)cc3F)[C@@H]3CCCNC3)nccc2s1 [Example 500, (E)-3-[4-[[2-fluoro-4-(triazolo[4,5-b]pyridin-3-yl)benzoyl]-[(3R)-3-piperidyl]amino]thieno[3,2-c]pyridin-2-yl]prop-2-enoic acid]
- IC50 [1]: > 10 µM

Structure (SMILES): CCOC(=O)/C=C/c1cc2c(N(C(=O)c3ccc(-n4nnc5cccnc54)cc3F)[C@@H]3CCCNC3)nccc2s1 [Example 501, ethyl (E)-3-[4-[[2-fluoro-4-(triazolo[4,5-b]pyridin-3-yl)benzoyl]-[(3R)-3-piperidyl]amino]thieno[3,2-c]pyridin-2-yl]prop-2-enoate]
- IC50 [1]: 0.8 µM

Structure (SMILES): O=C(O)c1nc(-c2cc3c(N(C(=O)c4ccc(-n5nnc6cccnc65)cc4F)[C@@H]4CCCNC4)nccc3s2)cs1 [Example 502, 4-[4-[[2-fluoro-4-(triazolo[4,5-b]pyridin-3-yl)benzoyl]-[(3R)-3-piperidyl]amino]thieno[3,2-c]pyridin-2-yl]thiazole-2-carboxylic acid]
- IC50 [1]: 2.1 µM

Structure (SMILES): O=C(c1ccc(-n2nnc3cccnc32)cc1F)N(c1nccc2sc(CCc3ccncc3)cc12)[C@@H]1CCCNC1 [Example 503, 2-fluoro-N-[(3R)-3-piperidyl]-N-[2-[2-(4-pyridyl)ethyl]thieno[3,2-c]pyridin-4-yl]-4-(triazolo[4,5-b]pyridin-3-yl)benzamide]
- IC50 [1]: 2.3 µM

Structure (SMILES): Cn1cc(-c2ccc(C(=O)N(c3nccc4sc(/C=C\CO)cc34)[C@@H]3CCCNC3)c(F)c2)nn1 [Example 504, (R,Z)-2-fluoro-N-(2-(3-hydroxyprop-1-en-1-yl)thieno[3,2-c]pyridin-4-yl)-4-(1-methyl-1H-1,2,3-triazol-4-yl)-N-(piperidin-3-yl)benzamide]
- IC50 [1]: 0.81 µM

Structure (SMILES): Cn1cc(-c2ccc(C(=O)N(c3nccc4cc(-c5ccncc5)sc34)[C@@H]3CCCNC3)c(F)c2)nn1 [Example 505, 2-fluoro-4-(1-methyltriazol-4-yl)-N-[(3R)-3-piperidyl]-N-[2-(4-pyridyl)thieno[2,3-c]pyridin-7-yl]benzamide]
- IC50 [1]: 0.25 µM

Structure (SMILES): Cn1cc(-c2ccc(C(=O)N(c3nccc4sc(Br)cc34)[C@@H]3CCCNC3)c(F)c2)nn1 [Example 506, N-(2-bromothieno[3,2-c]pyridin-4-yl)-2-fluoro-4-(1-methyltriazol-4-yl)-N-[(3R)-3-piperidyl] benzamide]
- IC50 [1]: 0.71 µM

Structure (SMILES): Cn1cc(-c2ccc(C(=O)N(c3nccc4sc(-c5ccccn5)cc34)[C@@H]3CCCNC3)c(F)c2)nn1 [Example 507, 2-fluoro-4-(1-methyltriazol-4-yl)-N-[(3R)-3-piperidyl]-N-[2-(2-pyridyl)thieno [3,2-c]pyridin-4-yl] benzamide]
- IC50 [1]: 0.61 µM

Structure (SMILES): Cn1cc(-c2ccc(C(=O)N(c3nccc4sc(-c5cccnc5)cc34)[C@@H]3CCCNC3)c(F)c2)nn1 [Example 508, 2-fluoro-4-(1-methyltriazol-4-yl)-N-[(3R)-3-piperidyl]-N-[2-(3-pyridyl)thieno [3,2-c]pyridin-4-yl] benzamide]
- IC50 [1]: 0.3 µM

Structure (SMILES): Cn1cc(-c2ccc(C(=O)N(c3nccc4sc(-c5cccc(N)c5)cc34)[C@@H]3CCCNC3)c(F)c2)nn1 [Example 509, N-[2-(3-aminophenyl)thieno[3,2-c]pyridin-4-yl]-2-fluoro-4-(1-methyltriazol-4-yl)-N-[(3R)-3-piperidyl]benzamidezamide]
- IC50 [1]: 0.52 µM

Structure (SMILES): Cn1cc(-c2ccc(C(=O)N(c3nccc4sc(-c5ccccc5)cc34)[C@@H]3CCCNC3)c(F)c2)nn1 [Example 510, 2-fluoro-4-(1-methyltriazol-4-yl)-N-(2-phenylthieno[3,2-c]pyridin-4-yl)-N-[(3R)-3-piperidyl]benzamide]
- IC50 [1]: 0.26 µM

Structure (SMILES): Cn1cc(-c2ccc(C(=O)N(c3nccc4sc(-c5ccsc5)cc34)[C@@H]3CCCNC3)c(F)c2)nn1 [Example 511, 2-fluoro-4-(1-methyltriazol-4-yl)-N-[(3R)-3-piperidyl]-N-[2-(3-thienyl)thieno[3,2-c]pyridin-4-yl]benzamide]
- IC50 [1]: 0.25 µM

Structure (SMILES): Cc1cccc2ccnc(N(C(=O)c3cccc(C#CCCO)c3)[C@@H]3CCCNC3)c12 [Example 512, (R)-3-(4-hydroxybut-1-yn-1-yl)-N-(8-methylisoquinolin-1-yl)-N-(piperidin-3-yl)benzamide]
- IC50 [1]: 1.1 µM

Structure (SMILES): Cc1cccc2ccnc(N(C(=O)c3cccc(C#CCCCO)c3)[C@@H]3CCCNC3)c12 [Example 513, (R)-3-(5-hydroxypent-1-yn-1-yl)-N-(8-methylisoquinolin-1-yl)-N-(piperidin-3-yl) benzamide]
- IC50 [1]: 0.54 µM

Structure (SMILES): Cc1cccc2ccnc(N(C(=O)c3cccc(C#CCCCCO)c3)[C@@H]3CCCNC3)c12 [Example 514, (R)-3-(6-hydroxyhex-1-yn-1-yl)-N-(8-methylisoquinolin-1-yl)-N-(piperidin-3-yl)benzamide]
- IC50 [1]: 0.89 µM

Structure (SMILES): Cc1cccc2ccnc(N(C(=O)c3cccc(C#CCCN)c3)[C@@H]3CCCNC3)c12 [Example 515, (R)-3-(4-aminobut-1-yn-1-yl)-N-(8-methylisoquinolin-1-yl)-N-(piperidin-3-yl)benzamide]
- IC50 [1]: 2.1 µM

Structure (SMILES): Cc1cccc2ccnc(N(C(=O)c3cccc(C#CCCC(=O)Nc4ccncc4)c3)[C@@H]3CCCNC3)c12 [Example 516, (R)—N-(8-methylisoquinolin-1-yl)-3-(5-oxo-5-(pyridin-4-ylamino)pent-1-yn-1-yl)-N-(piperidin-3-yl)benzamide]
- IC50: 0.75 µM

Structure (SMILES): Cc1cccc2ccnc(N(C(=O)c3cccc(C#CCCC(=O)NCc4ccncc4)c3)[C@@H]3CCCNC3)c12 [Example 517, (R)—N-(8-methylisoquinolin-1-yl)-3-(5-oxo-5-((pyridin-4-ylmethyl)amino)pent-1-yn-1-yl)-N-(piperidin-3-yl)benzamide]
- IC50 [1]: 7.3 µM

Structure (SMILES): Cc1cccc2ccnc(N(C(=O)c3cccc(C#CCCC(=O)N4CCC(O)C4)c3)[C@@H]3CCCNC3)c12 (stereo partly drawn) [Example 518, 3-(5-(3-hydroxypyrrolidin-1-yl)-5-oxopent-1-yn-1-yl)-N-(8-methylisoquinolin-1-yl)-N—((R)-piperidin-3-yl)benzamide]
- IC50 [1]: 0.94 µM

Structure (SMILES): Cc1cccc2ccnc(N(C(=O)c3cccc(C#CCCC(=O)N4CCOCC4)c3)[C@@H]3CCCNC3)c12 [Example 519, (R)—N-(8-methylisoquinolin-1-yl)-3-(5-morpholino-5-oxopent-1-yn-1-yl)-N-(piperidin-3-yl)benzamide]
- IC50 [1]: 0.43 µM

Structure (SMILES): Cc1cccc2ccnc(N(C(=O)c3cccc(C#CCCC(=O)NC(C)CO)c3)[C@@H]3CCCNC3)c12 (stereo partly drawn) [Example 520, 3-(5-((1-hydroxypropan-2-yl)amino)-5-oxopent-1-yn-1-yl)-N-(8-methylisoquinolin-1-yl)-N—((R)-piperidin-3-yl)benzamide]
- IC50 [1]: 1.7 µM
